Assay results published in patent US9333199B2, “Methods of treatment of histamine H-4 receptor-related pruritus associated with nerve disorders” (BRIDGE PHARMA, INC., priority 2013, dated 2016).

Legend:
[1] = tested on: histamine-induced pruritus; test: Antipruritic activity, histamine-induced pruritus in mice; type: in vivo, CD-1 mice; settings: for inhibition of pruritus following histamine injections (in words): intradermal histamine, Example 5, JNJ7777120 and desloratadine 20 mg/kg oral
Method: Antipruritic effects were tested in vivo in CD-1 mice, females, 10-12 weeks, according to methods known in the art. The hair was clipped over the rostral part of the back at the interscapular level of the mice one day before the dosing. Before the testing, the mice were placed in individual clear plastic cages for at least one hour for acclimation. After fasting for 1.5 hours, the animals were dosed orally with the test article, dissolved in a vehicle consisting of 1% methylcellulose/water, 10 mL/kg body weight. Sixty minutes after the oral dosing, an intradermal injection of histamine (300 nmol in 20 μl phosphate buffered saline (PBS), pH 7.4) was administered. Immediately after the histamine injection, the bouts of scratches were counted for 40 min. Scratching induced by the histamine vehicle PBS served as control.
Norketotifen was tested in escalating doses and in a supramaximal dose of 100 mg/kg.

[2] = Repeat-dose pharmacological and toxicological studies in dogs; type: in vivo; settings: daily doses up to 20 mg/kg/day
Text: Dogs vomit spontaneously for a variety of benign reasons—to expel unwanted content from their stomach, as a result of gastric irritation or in response to colonic irritation. In recent toxicological studies in dogs of various drugs, including isomeric norketotifen, vomiting occurred in both control groups and drug groups and may have been treatment-related, rather than drug-related. The unexpectedly low systemic toxicity of norketotifen and the isomers thereof is believed to be due to low systemic (plasma) concentrations, caused by the fact that norketotifen and the isomers thereof are not circulating in plasma but are accumulating in the skin, which is the largest organ in the body.

[3] = Sedation in human subjects; type: in vivo; settings: doses of 5 mg and 10 mg, humans
[4] = tested on: histamine-induced pruritus; settings: intradermal histamine, humans and mice; not tested in Example 5; cited from earlier work

SMILES	inhibition of histamine-induced pruritus at supramaximal dose ([1]; 100 mg/kg oral, histamine 300 nmol intradermal, bouts counted 40 min)	inhibition of histamine-induced pruritus, escalating doses ([1]; escalating oral doses, histamine 300 nmol intradermal)	inhibition of pruritus following histamine injections (in words) [1]	sedation or other adverse events, chronic dosing [2]	sedation in human subjects [3]	inhibition of pruritus following histamine injections (in words), general statement [4]
O=C1Cc2ccccc2C(=C2CCNCC2)c2ccsc21 [Norketotifen, norketotifen]	complete inhibition	dose-dependently inhibiting histamine-induced pruritus	potently inhibited	without causing sedation or other adverse events	do not produce sedation	–
CC(C)(C(=O)O)c1ccc(C(O)CCCN2CCC(C(O)(c3ccccc3)c3ccccc3)CC2)cc1 (stereo not shown) [fexofenadine]	–	–	–	–	–	not inhibited
CN1CCN(C(=O)c2cc3cc(Cl)ccc3[nH]2)CC1 [JNJ7777120, reference compound]	–	–	potently inhibited	–	–	–
